From PMC4632086, “Effects and possible mechanisms of action of acacetin on the behavior and eye morphology of Drosophila models of Alzheimer’s disease” (Scientific Reports, 2015)

Legend:
Assay type in all cases: in vivo, Drosophila melanogaster
elav < APP/BACE-1 flies [1] = assay: Fly eclosion rate (pupation and emergence); conditions: 100, 300, and 500 μM
Procedure: The pupation and emergence rates were determined according to the method of Tamura et al.[78]. The elav < APP/BACE-1 flies were cultured from the egg stage in vials, as stated previously. Groups of 50 third instar larvae climbing on the wall were transferred into vials containing fresh media. The treated and control (0.1% DMSO only) flies were grown under the same conditions as those used for fly maintenance. The numbers of pupae and adults were determined. All treatments were repeated four times using 50 larvae per replicate.

elav < APP/BACE-1 flies [2] = assay: Climbing assay (negative geotaxis); conditions: 100, 300, and 500 μM, males
Procedure: The climbing activity assay was performed, as described by Wang et al.[33] and Crowther et al.[34]. Groups of 20 male elav < APP/BACE-1 flies (1, 5, 10, and 15 days old), cultured in vials as stated previously, were separately placed in an empty vial conjoined with another vial on top, and manually tapped twice. After 20 s, the flies that climbed from the bottom and crossed the 9.5 cm line were counted, and the climbing index was determined as the number of flies that climbed to the top vial relative to the total number of test flies and expressed as a percentage. The controls received 0.1% DMSO. All trials were repeated five times using 20 males per replicate.

human BACE-1 mRNA = assay: Real-time qRT-PCR, human BACE-1 mRNA in elav < APP/BACE-1 flies; conditions: 100, 300, and 500 μM; 20-day-old males
Procedure: Real-time qRT-PCR with SYBR Green dye was performed to determine whether acacetin affected the expression levels of the human APP and BACE-1 mRNAs in the transgenic flies. The elav < APP/BACE-1 and elav < GFP flies were cultured from the egg stage in vials, as stated previously. The controls received 0.1% DMSO only. The total RNA was extracted from 30 heads (30 mg) of male elav < APP/BACE-1 and elav < GFP flies (20 days old) using the RNeasy Mini Kit (Qiagen, Hilden, Germany) according to the manufacturer’s instructions. The residual genomic DNA was removed using RQ1 RNase-Free DNase (Promega, Fitchburg, WI, USA), and 1 μg of the total RNA from each sample was used for complementary DNA (cDNA) synthesis with an oligo (dT) 12–18 primer (Invitrogen, Carlsbad, CA, USA) according to the protocol of the SuperScript III Reverse Transcriptase Kit. Real-time qRT-PCR was performed in 96-well plates using the StepOne Plus Real-Time PCR System (Applied Biosystems, Darmstadt, Germany). […] The mRNA expression levels of the target genes were normalized to the mRNA expression level of the housekeeping gene rp 49 that encodes the Drosophila ribosomal protein 49, and analyzed by the 2^–ΔΔCT method using the StepOne Software v2.3 and DataAssist Software (Applied Biosystems). The results are expressed as the means ± SEs of duplicate samples from three independent experiments.

Aβ = assay: Western blot, Aβ in heads of elav < APP/BACE-1 flies; conditions: 20-day-old males
Procedure: (§1) The elav < APP/BACE-1 flies were cultured from the egg stage, as described previously. The lysates were obtained from the heads of 50 male flies (20 days old) by placing the heads in 100 μL RIPA buffer (pH 8.0) containing a 1% protease inhibitor cocktail. The controls received 0.1% DMSO. The lysates were centrifuged at 14,000 rpm for 30 min at 4 °C. The protein content of the supernatant was determined using a Bradford Protein Assay kit (Sigma-Aldrich) and BSA was used as the standard. The total proteins (30 μg/sample for APP and BACE-1 detection; 70 μg/sample for Aβ detection) were mixed with an equal volume of 5× sample buffer[81] containing 40 mM of DL-dithiothreitol, boiled for 10 min, and then loaded onto 8, 10, and 12% sodium dodecyl sulfate-polyacrylamide gels using a Mini-Protean 3 electrophoresis cell (Bio-Rad, Hercules, CA, USA) for APP, APP-CTF (APP-αCTF and APP-βCTF) and AICD, BACE-1, and Aβ detection, respectively. After electrophoresis at 110 V in 2 h, the proteins from the gels were transferred onto a polyvinyl difluoride membrane (Pall Corporation, Pensacola, FL, USA) using an electroblotting apparatus. The membrane was then blocked with 5% skim milk (BD Difco, Flanklin Lakes, NJ, USA) in PBS containing 0.1% (v/v) Tween-20 (0.1% PBS-T) at room temperature for 1 h, and further incubated overnight at 4 °C with a 1:4,000 dilution of an anti-APP C-terminal antibody to detect the cleaved APP product, a 1:1,000 dilution of anti-BACE-1, and a 1:1,000 dilution of anti-amyloid (4G8). After washing with 0.1% PBS-T three times at 10 min intervals, the membranes were further incubated for 2 h with a goat anti-rabbit IgG H&L (HRP) secondary antibody at a1:4,000 dilution for APP and BACE-1 and a goat anti-mouse lgG-HRP at a 1:5,000 dilution for β-amyloid. […] The differences in protein expression were quantified using a Molecular Imager Gel Doc XR system (Bio-Rad, Hercules, CA, USA) and normalized to actin expression on the same membrane. The results are expressed as the means ± SEs of duplicate samples from three independent experiments.

human APP = assay: Western blot, APP protein in heads of elav < APP/BACE-1 flies; conditions: 20-day-old males
Procedure: as §1

APP-CTF = assay: Western blot, APP-CTF in heads of elav < APP/BACE-1 flies; conditions: 100, 300, and 500 μM; 20-day-old males
Procedure: The elav < APP/BACE-1 flies were cultured from the egg stage, as described previously. The lysates were obtained from the heads of 50 male flies (20 days old) by placing the heads in 100 μL RIPA buffer (pH 8.0) containing a 1% protease inhibitor cocktail. The controls received 0.1% DMSO. The lysates were centrifuged at 14,000 rpm for 30 min at 4 °C. The protein content of the supernatant was determined using a Bradford Protein Assay kit (Sigma-Aldrich) and BSA was used as the standard. The total proteins (30 μg/sample for APP and BACE-1 detection; 70 μg/sample for Aβ detection) were mixed with an equal volume of 5× sample buffer[81] containing 40 mM of DL-dithiothreitol, boiled for 10 min, and then loaded onto 8, 10, and 12% sodium dodecyl sulfate-polyacrylamide gels using a Mini-Protean 3 electrophoresis cell (Bio-Rad, Hercules, CA, USA) for APP, APP-CTF (APP-αCTF and APP-βCTF) and AICD, BACE-1, and Aβ detection, respectively. […] The differences in protein expression were quantified using a Molecular Imager Gel Doc XR system (Bio-Rad, Hercules, CA, USA) and normalized to actin expression on the same membrane. The results are expressed as the means ± SEs of duplicate samples from three independent experiments.

[3] = system: APP intracellular domain (AICD); assay: Western blot, AICD in heads of elav < APP/BACE-1 flies; conditions: 20-day-old males
Procedure: as §1

COc1ccc(-c2cc(=O)c3c(O)cc(O)cc3o2)cc1 [acacetin]
pupation rate (elav < APP/BACE-1 flies [1]): nearly normal pupation rates
emergence of flies (elav < APP/BACE-1 flies [1]; vehicle 76%, elav-Gal4/+ 99%, not significant vs vehicle): 82–86%
climbing index (elav < APP/BACE-1 flies [2]; 1 day postemergence, vehicle 47%): approximately 68%
climbing index (elav < APP/BACE-1 flies [2]; 5 days postemergence, vehicle 39%): 60–66%
climbing index (elav < APP/BACE-1 flies [2]; 10 days postemergence, vehicle 36%): 53–54%
climbing index (elav < APP/BACE-1 flies [2]; 15 days postemergence, vehicle 11%): 27–30%
human BACE-1 mRNA levels, % of the control levels (human BACE-1 mRNA): 82–89%
Aβ levels, % of the controls (Aβ; 100 μM): 71%
Aβ levels, % of the controls (Aβ; 300 μM): 72%
Aβ levels, % of the controls (Aβ; 500 μM): 47%
APP levels, % of the control levels (human APP; 100 μM, not significantly different from control): 86%
APP levels, % of the control levels (human APP; 300 μM): 70%
APP levels, % of the control levels (human APP; 500 μM): 69%
APP-CTF, % of the control levels (APP-CTF): approximately 80%
AICD levels, % of the control levels ([3]; 100 μM): 68%
AICD levels, % of the control levels ([3]; 300 μM): 27%
AICD levels, % of the control levels ([3]; 500 μM): 37%
